From patent US20250108099A1, “Ovomucoid for use in a method of managing blood coagulation” (Solution Shop AG, priority 2022, published 2025) come the findings set out here.

What all share (assay type): biochemical
The test system of assay [1] is Thrombin generation. Nature of the assay: Thrombin generation (calibrated automated thrombogram) in normal non-defibrinated plasma, presence of endogenous fibrinogen. As to conditions: for effect on extrinsic-thrombin generation: extrinsic (5 pM TF), ovomucoid/Trasylol 50-350 U/ml, Cyklokapron 1-8 mg; for effect on thrombin generation / coagulation system: low TF concentration (0.5 pM). The source says: (§1) This pilot bioequivalence study aims at investigating the effect of duck egg ovomucoid on the clotting system and assessed its activity against the known anti-thrombolytic agents (Trasylol® “aprotinin” and Cyklokapron” “transamic acid”) by means of the calibrated automated thrombogram (CAT). The CAT method is a functional sensitive assay which detects any hyper- or hypocoagulability in the clotting system, disorders in platelet function and follows up therapy with anti-haemophilia supplements, anticoagulants and antithrombotics.
(§2) An optimal concentration of procoagulant phospholipids was used (4 μM). Two concentrations of tissue factor (TF) were added, 5 pM to study the classical extrinsic pathway and 0.5 pM to explore a pathway in which also the antihaemophilic factors (Factor VIII and IX) play a role.
Normally fibrin (-ogen) is present during thrombin generation, therefore the above experiments were carried out in normal non-defibrinated plasma. Extrinsic-thrombin generation was conducted in normal plasma spiked with increasing amounts of duck egg ovomucoid (50-350 U/ml) and compared to Trasylol (50-350 U/ml) and to Cyklokapron (1-8 mg).

The target in the next assay is T1, plasmin (Homo sapiens, UniProt P00747).
T1 construct: a buffered plasmin solution was used
T1 sequence (P00747 97-580 limits assumed): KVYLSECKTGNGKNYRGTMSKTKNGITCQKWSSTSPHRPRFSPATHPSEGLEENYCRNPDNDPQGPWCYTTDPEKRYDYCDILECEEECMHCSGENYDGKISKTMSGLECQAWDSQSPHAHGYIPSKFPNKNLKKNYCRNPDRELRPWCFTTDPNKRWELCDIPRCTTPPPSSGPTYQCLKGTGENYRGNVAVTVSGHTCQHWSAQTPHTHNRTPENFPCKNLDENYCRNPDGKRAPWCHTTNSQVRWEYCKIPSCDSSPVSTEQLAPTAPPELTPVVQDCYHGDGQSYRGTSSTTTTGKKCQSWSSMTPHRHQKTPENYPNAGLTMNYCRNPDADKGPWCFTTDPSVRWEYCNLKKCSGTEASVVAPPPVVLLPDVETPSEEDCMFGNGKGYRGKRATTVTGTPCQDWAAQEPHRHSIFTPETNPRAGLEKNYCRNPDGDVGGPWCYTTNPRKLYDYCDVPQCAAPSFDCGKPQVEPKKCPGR
T1 sequence (P00747 581-810 limits assumed): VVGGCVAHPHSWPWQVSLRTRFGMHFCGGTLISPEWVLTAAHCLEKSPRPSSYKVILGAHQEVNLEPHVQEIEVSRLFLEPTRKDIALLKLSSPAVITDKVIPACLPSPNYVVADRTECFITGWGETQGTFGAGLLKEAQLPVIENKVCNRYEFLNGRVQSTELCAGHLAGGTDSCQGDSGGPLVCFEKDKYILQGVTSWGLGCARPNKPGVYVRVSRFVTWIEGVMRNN
The experiment in a line: Plasmin inhibition in buffered plasmin solution with chromogenic substrate S-2251 (Example 2). The following applies: 37° C. Here is the method: In order to analyse plasmin inhibition a buffered plasmin solution was used. The solution was incubated with duck egg ovomucoid or cyklocapron as a control. The solutions were incubated at 37° C. and the chromogenic plasmin substrate S-2251 was added and plasmin activity was measured.

Assay [2] relates to Thrombin generation. Nature of the assay: Thrombin generation (calibrated automated thrombogram) in defibrinated normal pooled plasma, absence of fibrinogen. As to conditions: 0.5 pM TF, ovomucoid/Trasylol 50-350 U/ml, Cyklokapron 1-8 mg/ml.
Description: as §1
In a fibrinolytic patient fibrin is unstable.
as §2

Turning to `NC[C@H]1CC[C@H](C(=O)O)CC1` [Cyklokapron, transamic acid], in the assay with Thrombin generation [1], the “effect on extrinsic-thrombin generation” value was “hardly any activity” and the “effect on thrombin generation / coagulation system” value is given as “procoagulant”. The “inhibitory effect on plasmin” value against plasmin is given as “inhibitory effect on plasmin”. In addition, the “effect on thrombin generation” value in the assay with Thrombin generation [2] was “increased the thrombin generation in a dose-dependent manner”.

On to aprotinin [Trasylol], for which, in the assay on Thrombin generation [1], the “effect on extrinsic-thrombin generation” value is given as “hardly any activity” and the “effect on thrombin generation / coagulation system” value was “dose-dependently anticoagulant”. Moreover, the “effect on thrombin generation” value with Thrombin generation [2] was “inhibited thrombin generation dose-dependently”.
